Structures are written as SMILES.

The IC50 is the concentration needed to halve the response being measured.

The target of this test is human NaV subtype, like NaV 1.7 (Homo sapiens, UniProt Q15858). As to the kind of experiment: E-VIPR optical membrane potential assay with electrical stimulation. The format is cell-based. Conditions: active against one or more sodium channels; Table 3 does not name the assay or NaV subtype; read-out: Binned Activity Data (IC50).
human NaV subtype, like NaV 1.7, sequence (Q15858 whole entry): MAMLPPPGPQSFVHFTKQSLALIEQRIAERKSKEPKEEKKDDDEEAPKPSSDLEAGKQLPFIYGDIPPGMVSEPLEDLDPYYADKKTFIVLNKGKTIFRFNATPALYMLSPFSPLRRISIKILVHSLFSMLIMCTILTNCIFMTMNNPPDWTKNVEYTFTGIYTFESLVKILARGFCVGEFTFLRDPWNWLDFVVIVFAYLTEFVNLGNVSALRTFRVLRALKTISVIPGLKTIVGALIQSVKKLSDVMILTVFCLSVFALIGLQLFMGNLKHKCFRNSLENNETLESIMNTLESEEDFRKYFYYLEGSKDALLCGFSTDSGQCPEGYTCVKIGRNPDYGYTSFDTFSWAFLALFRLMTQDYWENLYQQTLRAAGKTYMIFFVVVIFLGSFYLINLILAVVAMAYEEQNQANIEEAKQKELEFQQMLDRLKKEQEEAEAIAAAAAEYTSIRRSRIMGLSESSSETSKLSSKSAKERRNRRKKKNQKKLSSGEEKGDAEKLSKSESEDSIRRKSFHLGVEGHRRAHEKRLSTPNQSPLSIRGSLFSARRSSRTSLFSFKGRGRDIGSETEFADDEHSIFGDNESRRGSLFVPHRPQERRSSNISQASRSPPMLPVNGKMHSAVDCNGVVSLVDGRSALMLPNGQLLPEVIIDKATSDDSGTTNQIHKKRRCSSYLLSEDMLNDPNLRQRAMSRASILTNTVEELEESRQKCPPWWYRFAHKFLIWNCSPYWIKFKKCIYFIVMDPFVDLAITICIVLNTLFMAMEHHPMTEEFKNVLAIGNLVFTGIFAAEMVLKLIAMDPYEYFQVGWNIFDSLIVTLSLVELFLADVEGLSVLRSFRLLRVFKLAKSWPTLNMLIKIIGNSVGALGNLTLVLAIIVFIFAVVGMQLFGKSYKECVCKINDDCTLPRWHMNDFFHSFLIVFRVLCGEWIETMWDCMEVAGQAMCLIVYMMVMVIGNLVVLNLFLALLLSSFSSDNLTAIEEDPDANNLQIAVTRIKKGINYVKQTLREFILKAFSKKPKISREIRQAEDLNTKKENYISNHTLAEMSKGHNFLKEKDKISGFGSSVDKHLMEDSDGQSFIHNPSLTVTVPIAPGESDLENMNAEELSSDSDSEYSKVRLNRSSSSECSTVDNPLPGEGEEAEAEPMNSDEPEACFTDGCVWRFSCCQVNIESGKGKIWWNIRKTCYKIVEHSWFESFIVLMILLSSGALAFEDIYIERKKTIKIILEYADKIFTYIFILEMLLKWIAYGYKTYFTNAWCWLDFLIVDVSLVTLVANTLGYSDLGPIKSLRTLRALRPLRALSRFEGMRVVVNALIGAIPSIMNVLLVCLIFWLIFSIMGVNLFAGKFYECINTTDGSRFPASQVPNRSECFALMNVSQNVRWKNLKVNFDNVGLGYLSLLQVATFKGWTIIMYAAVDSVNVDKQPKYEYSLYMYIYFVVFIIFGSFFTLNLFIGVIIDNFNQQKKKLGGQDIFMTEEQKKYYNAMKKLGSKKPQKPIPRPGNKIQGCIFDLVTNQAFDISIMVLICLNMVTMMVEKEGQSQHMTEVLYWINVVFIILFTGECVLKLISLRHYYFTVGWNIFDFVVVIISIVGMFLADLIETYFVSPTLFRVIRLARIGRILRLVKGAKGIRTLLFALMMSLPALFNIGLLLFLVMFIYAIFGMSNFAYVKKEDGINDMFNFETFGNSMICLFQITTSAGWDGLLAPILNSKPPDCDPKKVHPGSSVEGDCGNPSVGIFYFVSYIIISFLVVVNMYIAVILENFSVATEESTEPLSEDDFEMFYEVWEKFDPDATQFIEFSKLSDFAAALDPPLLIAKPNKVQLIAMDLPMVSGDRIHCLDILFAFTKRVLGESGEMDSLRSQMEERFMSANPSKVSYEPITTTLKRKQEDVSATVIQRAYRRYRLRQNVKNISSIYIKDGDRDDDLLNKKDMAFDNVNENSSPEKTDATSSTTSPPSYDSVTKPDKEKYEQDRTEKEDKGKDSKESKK
Take `COc1cc(C(=O)N2CCC3(CC2)c2ccc(C(=O)C(F)(F)F)n2CCN3C)ccc1-c1ccccc1` [Compound 555]: the half-maximal inhibitory concentration (IC50) was at most 2000 nM.
For the compound `COc1ccc(C(=O)N2CCC3(CC2)c2ccc(C(=O)C(F)(F)F)n2CCN3C)cc1Cl` [Compound 697], the IC50 is at most 2000 nM.
Take `CC(C)Oc1ccc(C(=O)N2CCC3(CC2)c2ccc(C(=O)C(F)(F)F)n2C[C@@H](C)N3C)c(F)c1` [Compound 564]: the half-inhibitory concentration (IC50) was at most 2000 nM.
`CC(C)Oc1ccc(C(=O)N2CCC3(CC2)c2cc(C(=O)C(F)(F)F)cn2C(C)(C)CN3C)c(F)c1` [Compound 52]: the IC50 is over 5000 nM.
To `Cc1cc(C(=O)N2CCC3(CC2)c2ccc(C(=O)C4(C)CC4)n2CCN3C)ccc1O` [Compound 161] belongs at most 2000 nM.
The value for `COc1cc(C(=O)N2CCC3(CC2)NC(C)(C)Cn2c(C(=O)C(F)(F)F)ccc23)ccc1OC(C)C` [Compound 375] was at most 2000 nM.
To `CCOC(=O)N1CCn2c(C(F)(F)F)ccc2C12CCN(C(=O)c1ccc(OC(C)C)c(OC)c1)CC2` [Compound 741] belongs at most 2000 nM.
For the compound `CC(=O)c1ccc2n1CCN(C)C21CCN(C(=O)c2ccc(OCC(C)(C)C)cc2)CC1` [Compound 462], the 50% inhibitory concentration (IC50) was at most 2000 nM.
To `COCCOc1ccc(C(=O)N2CCC3(CC2)c2ccc(C(=O)C(F)(F)F)n2CCN3C)cc1` [Compound 434] belongs over 5000 nM; to `CCS(=O)(=O)c1ccc(C(=O)N2CCC3(CC2)c2ccc(C(F)(F)F)n2CCN3C)cc1C` [Compound 298], at most 2000 nM; to `CC(C)Oc1ccc(C(=O)N2CCC3(CC2)c2ccc(C(=O)C(C)(C)C)n2CCN3C)cc1C(F)(F)F` [Compound 617], at most 2000 nM.
To `Cc1cc(C(=O)N2CCC3(CC2)NC(C)Cn2c(C(F)(F)F)ccc23)ccc1OC(C)C` (stereo not shown) [Compound 222] belongs at most 2000 nM; to `CCOc1ccc(C(=O)N2CCC3(CC2)c2ccc(Cl)n2CCN3C)cc1OCC` [Compound 86], over 5000 nM.
To `COc1cc(C(=O)N2CCC3(CC2)c2ccc(C(F)(F)C(F)(F)F)n2CCN3C)ccc1OC(C)(C)C` [Compound 299] belongs at most 2000 nM.
`CN1CCn2c(C(F)(F)F)cc(Cl)c2C12CCN(C(=O)c1ccc(C(C)(C)O)cc1)CC2` [Compound 469]: the half-inhibitory concentration (IC50) was 2000 to 5000 nM.
To `CN1CCn2c(ccc2C(F)(F)C(F)(F)F)C12CCN(C(=O)c1ccc(C(C)(C)O)cc1)CC2` [Compound 743] belongs at most 2000 nM; to `COc1cc(C(=O)N2CC[C@@]3(c4ccc(C(F)(F)F)n4CCN3C)[C@H](F)C2)ccc1OC(C)C` [Compound 88], 2000 to 5000 nM; to `CCc1ccc(C(=O)N2CCC3(CC2)c2c(F)cc(C(F)(F)F)n2CCN3C)cc1OC` [Compound 668], at most 2000 nM.
Turning to `COc1cc(C(=O)N2CCC3(CC2)c2ccc(C(F)(F)F)n2C[C@@H](C)N3C)ccc1OC(C)C` [Compound 677], the concentration for half-maximal inhibition (IC50) is over 5000 nM.
The value for `COc1nc(C(=O)N2CCC3(CC2)c2c(Cl)cc(C(F)(F)F)n2CCN3C)ccc1OC(C)C` [Compound 379] was at most 2000 nM.
To `COc1cc(C(=O)N2CCC3(CC2)c2c(Br)cc(C(F)(F)F)n2CCN3C)ccc1OC(C)C` [Compound 348] belongs at most 2000 nM; to `O=C(c1cccc2cccnc12)N1CCC2(CC1)NCCn1c(C(F)(F)F)ccc12` [Compound 452], 2000 to 5000 nM; to `Cc1c(O)cccc1C(=O)N1CCC2(CC1)c1ccc(C(=O)C(F)(F)F)n1CCN2C` [Compound 714], over 5000 nM.
To `COc1ccc(C(=O)N2CCC3(CC2)c2ccc(C(=O)C(F)(F)F)n2CCN3C)cc1C(F)(F)F` [Compound 459] belongs at most 2000 nM; to `CC1CNC2(CCN(C(=O)c3ccc(COCCC(F)(F)F)cc3)CC2)c2ccc(C(=O)C(F)(F)F)n21` (stereo not shown) [Compound 505], at most 2000 nM; to `CN1CCn2c(C(=O)C(F)(F)F)ccc2C12CCN(C(=O)c1ccc(N3CCCCC3)cc1)CC2` [Compound 582], at most 2000 nM.
As to `CC(=O)c1ccc2n1CCN(C)C21CCN(C(=O)c2ccc(Cc3ccccc3)cc2)CC1` [Compound 260], the IC50 fell in the range of 2000 to 5000 nM.
Turning to `CCC(=O)c1ccc2n1CCN(C)C21CCN(C(=O)c2ccc(OC(C)C)c(OC)c2)CC1` [Compound 607], the IC50 was 2000 to 5000 nM.
In the case of `CC(C)Oc1ccc(C(=O)N2CCC3(CC2)c2ccc(CC(F)(F)F)n2CCN3C)cc1Cl` [Compound 11], the IC50 was at most 2000 nM.
To `COc1cc(C(=O)N2CCC3(CC2)c2c(F)cc(C(F)(F)F)n2CCN3C)ccc1C1(O)CCC1` [Compound 410] belongs at most 2000 nM; to `CN1CCn2c(Cl)ccc2C12CCN(C(=O)c1ccc(N3CCCCC3)cc1)CC2` [Compound 195], over 5000 nM; to `COc1ccc(C(=O)N2CCC3(CC2)c2ccc(C(=O)C(C)C)n2CCN3C)cc1C(F)(F)F` [Compound 735], at most 2000 nM.
Turning to `COc1ccc(C(=O)N2CCC3(CC2)c2ccc(C(=O)C4CC4)n2CCN3C)cc1Cl` [Compound 484], the IC50 was at most 2000 nM.
For `CC1Cn2c(C(F)(F)F)ccc2C2(CCN(C(=O)c3ccc(OC(C)C)cc3F)CC2)N1` (stereo not shown) [Compound 427], the IC50 was at most 2000 nM.
To `COc1ccc(C(=O)N2CCC3(CC2)c2cc(C(=O)C(F)(F)F)cn2C(C)(C)CN3C)cc1Cl` [Compound 529] belongs over 5000 nM.
The value for `CC(C)Oc1ccc(C(=O)N2CCC3(CC2)c2ccc(C(=O)C(F)(F)F)n2C(C)(C)CN3C)cc1F` [Compound 16] was 2000 to 5000 nM.
On to `Cc1cc(C(=O)N2CCC3(CC2)c2c(Cl)cc(C(F)(F)F)n2CCN3C)ncc1OC(C)C` [Compound 657], for which the IC50 is at most 2000 nM.
In the case of `Cc1nc(C(=O)N2CCC3(CC2)NC(C)(C)Cn2c(C(=O)C(F)(F)F)ccc23)ccc1OC(C)C` [Compound 433], the IC50 is at most 2000 nM.
Turning to `CC(C)Oc1ccc(C(=O)N2CCC3(CC2)NCCn2c(C(F)(F)F)ccc23)c(F)c1` [Compound 367], the IC50 was at most 2000 nM.
To `CCCOc1ccc(C(=O)N2CCC3(CC2)NCCn2c(C(F)(F)F)ccc23)cc1OC` [Compound 550] belongs at most 2000 nM.
Consider `CN1CCn2c(Cl)ccc2C12CCN(C(=O)c1ccc(COc3ccccc3)cc1)CC2` [Compound 414], for which the IC50 was in the range of 2000 to 5000 nM.
For the compound `Cc1cc(C(=O)N2CCC3(CC2)c2ccc(C(=O)C(F)(F)F)n2CCN3C)ccc1C(F)(F)F` [Compound 471], the IC50 is at most 2000 nM.
On to `Cc1cc(C(=O)N2CCC3(CC2)c2ccc(C(F)(F)C(F)(F)F)n2CCN3C)ccc1OCCCO` [Compound 96], for which the 50% inhibitory concentration (IC50) was at most 2000 nM.
The value for `COc1ccc(C(=O)N2CCC3(CC2)c2ccc(C(=O)C(F)(F)F)n2C[C@@H](C)N3C)cc1Cl` [Compound 252] was over 5000 nM.
`Cc1cc(C(=O)N2CCC3(CC2)c2c(F)cc(C(F)(F)F)n2CCN3C)ccc1S(=O)(=O)C(C)C` [Compound 215]: the IC50 was at most 2000 nM.
For `COc1ccc(C(=O)N2CCC3(CC2)c2ccc(C(=O)C4(C)CC4)n2CCN3C)cc1Cl` [Compound 493], the concentration for half-maximal inhibition (IC50) is at most 2000 nM.
The value for `COC(=O)N1CCn2c(C(F)(F)F)ccc2C12CCN(C(=O)c1ccc(C(C)(C)O)c(C)c1)CC2` [Compound 683] was at most 2000 nM.
The value for `CC(=O)c1ccc2n1CC(C)(C)NC21CCN(C(=O)c2ccc(OC(C)C)c(C)c2)CC1` [Compound 418] was at most 2000 nM.
On to `COc1ccc(C(=O)N2CCC3(CC2)c2ccc(C(=O)C(F)(F)F)n2C(C)CN3C)cc1C(F)(F)F` (stereo not shown) [Compound 240], for which the IC50 is at most 2000 nM.
Regarding `CNS(=O)(=O)c1ccc(C(=O)N2CCC3(CC2)c2ccc(C(F)(F)F)n2CCN3C)cc1` [Compound 716], the IC50 is at most 2000 nM.
To `COCCOc1ccc(C(=O)N2CCC3(CC2)c2ccc(C(=O)C(F)(F)F)n2CCN3C)cc1OC` [Compound 640] belongs 2000 to 5000 nM; to `COCCN1CCn2cccc2C12CCN(C(=O)c1ccc(OC(C)C)c(C)c1)CC2` [Compound 269], at most 2000 nM; to `CN1CCn2c(C(=O)C(F)(F)F)ccc2C12CCN(C(=O)c1ccc(C3CCCCC3)cc1)CC2` [Compound 101], at most 2000 nM.
To `Cc1cc(C(=O)N2CCC3(CC2)c2ccc(S(C)(=O)=O)n2CCN3C)ccc1OC(C)C` [Compound 542] belongs over 5000 nM; to `Cc1cc(C(=O)N2CCC3(CC2)c2ccc(C(=O)C(C)(C)C)n2CCN3C)ccc1S(=O)(=O)C(C)C` [Compound 654], at most 2000 nM; to `CN1CCn2c(C(F)(F)F)cc(F)c2C12CCN(C(=O)c1ccc(C3CC3)cc1)CC2` [Compound 184], 2000 to 5000 nM.
Regarding `COc1cc(C(=O)N2CCC3(CC2)c2ccc(C(F)(F)F)n2C(CO)CN3C)ccc1OC(C)C` (stereo not shown) [Compound 719], the half-inhibitory concentration (IC50) lay in the range of 2000 to 5000 nM.
`Cc1cc(C(=O)N2CCC3(CC2)c2c(F)cc(C(F)(F)F)n2CCN3C)ccc1OCC(C)(C)O` [Compound 217]: the IC50 is at most 2000 nM.
To `CCCOc1ccc(C(=O)N2CCC3(CC2)c2ccc(C(=O)C(F)(F)F)n2CCN3C)cc1OC` [Compound 538] belongs at most 2000 nM; to `CC(=O)c1ccc2n1CCN(C)C21CCN(C(=O)c2ccc(S(=O)(=O)NC3CC3)cc2)CC1` [Compound 532], over 5000 nM; to `Cc1cc(C(=O)N2CCC3(CC2)c2cccn2CCN3C)ccc1C(C)(C)O` [Compound 457], over 5000 nM.
The value for `COc1ccc(C(=O)N2CCC3(CC2)c2cc(C(=O)C(F)(F)F)cn2C(C)(C)CN3C)cc1C` [Compound 239] was over 5000 nM; that for `CN1CCn2c(C(=O)C(F)(F)F)ccc2C12CCN(C(=O)c1ccc(OCC3CC3)c(F)c1)CC2` [Compound 46] was at most 2000 nM.
As for `CN1CCn2c(C(=O)C3(C)CC3)ccc2C12CCN(C(=O)c1ccc(S(=O)(=O)C(C)(C)C)cc1)CC2` [Compound 689], the IC50 was over 5000 nM.
To `Cc1cc(C(=O)N2CCC3(CC2)c2ccc(C(F)(F)F)n2CCN3C)ccc1C1COC1` [Compound 658] belongs at most 2000 nM; to `Cc1nc(C(=O)N2CCC3(CC2)c2ccc(C(=O)C(F)(F)F)n2C(C)CN3C)ccc1OC(C)C` (stereo not shown) [Compound 556], at most 2000 nM; to `CN1CCn2c(C(F)(F)F)cc(F)c2C12CCN(C(=O)c1ccc(C(C)(C)O)c(F)c1)CC2` [Compound 616], at most 2000 nM.

The record behind these values is patent US8916565B2, “Pyrrolopyrazine-spirocyclic piperidine amides as modulators of ion channels” (priority 2011, dated 2014).
